# Test results from US11548875B2, “Inhibitor compounds for male contraception” (University of Washington, priority 2018, dated 2023).
# Counter-ions that a name gives are not always drawn.
# Key:
# ALDH1A1 = target: T1, ALDH1A1 (Homo sapiens, UniProt P00352); experiment: Inhibitor screening using purified enzymes: ALDH1A1 activity, retinoic acid production by HPLC; assay type: biochemical; settings: purified enzyme
# T1 sequence (P00352 1-501): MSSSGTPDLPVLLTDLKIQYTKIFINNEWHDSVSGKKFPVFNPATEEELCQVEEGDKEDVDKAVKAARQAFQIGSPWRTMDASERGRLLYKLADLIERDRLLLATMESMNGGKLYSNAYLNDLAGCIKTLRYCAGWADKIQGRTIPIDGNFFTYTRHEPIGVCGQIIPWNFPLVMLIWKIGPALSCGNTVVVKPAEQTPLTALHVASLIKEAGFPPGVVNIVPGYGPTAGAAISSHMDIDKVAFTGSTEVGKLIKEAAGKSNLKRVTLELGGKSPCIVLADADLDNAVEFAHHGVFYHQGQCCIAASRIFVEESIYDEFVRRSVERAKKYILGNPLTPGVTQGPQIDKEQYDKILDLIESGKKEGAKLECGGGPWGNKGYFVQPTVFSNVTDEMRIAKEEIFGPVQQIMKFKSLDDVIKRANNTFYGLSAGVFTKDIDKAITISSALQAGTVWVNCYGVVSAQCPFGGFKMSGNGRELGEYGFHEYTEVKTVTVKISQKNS
# From the text: ALDHs were cloned into bacterial expression vector for in vitro enzyme assays and into mammalian expression vectors for cell-based enzyme assays. Human ALDH1A1 cDNA and human ALDH2 cDNA were purchased from OriGene (SC321535) and Open Biosystems (MHS4771-99611182), respectively. and human ALDH1A2 cDNA was cloned from human testis RNA using RT-PCR (Population Division of the Department of Economic and Social Affairs of the United Nations Secretariat. World Population prospects: the 2008 revision. Available at http://www.un.org/esa/population/ (Retrieved Sep. 30, 2011)). For bacterial expression, an open reading frame of ALDH1A1 and ALDH2 were subcloned into the pETite vector (Lucigen) with a 5′ histidine-tag and that of ALDH1A2 into a pET28 vector (Novagen) with a 3′ histidine-tag. Correct frame and sequences were verified through DNA sequencing (UW DNA sequencing facility). ALDHs were induced with 1 mM IPTG and purified using His.Bind resin (Novagen, San Diego, Calif.) and stored in a buffer containing 20 mM Hepes (pH 8), 150 mM KCl and 1 mM EDTA as previously described (Fierce, Y., de Morais Vieira, M., Piantedosi, R., Wyss, A., Blaner, W. S., and Paik, J. (2008) In vitro and in vivo characterization of retinoid synthesis from beta-carotene. Archives of biochemistry and biophysics 472, 126-138).
# ALDH1A1 and ALDH1A2 activity was determined as previously reported (Beedle M T, Stevison F, Zhong G, Topping T, Hogarth C, Isoherranen N, Griswold M D. Sources of All-Trans Retinal Oxidation Independent of the Aldehyde Dehydrogenase 1A Isozymes Exist in the Postnatal Testis. Biol Reprod. 2018 Sep. 21. doi: 10.1093/biolre/ioy200). Briefly, purified enzymes were incubated in a buffer containing 10 mM HEPES buffer (pH 8.0), 150 mM potassium chloride and 2 mM EDTA with 2 mM NAD. Retinoic acid production was determined using HPLC as previously reported (Amory J K, Muller C H, Shimshoni A J, Isoherranen N, Paik J, Moreb J S, Amory D W, Evanoff R, Goldstein A S, Griswold M D. Suppression of spermatogenesis by bisdichloroacetyldiamines is mediated by inhibition of testicular retinoic acid biosynthesis. Journal of Andrology 2011; 32(1):111-119). Inhibitors were diluted in DMSO and added to the reactions. […] For initial screening of inhibitors for ALDH1A2, 1 μg ALDH1A2, 5 μM all-trans-retinal and 5 μM inhibitors were incubated for 15 min at 37° C. […] For this purpose, 0.5 μg ALDH1A2 and […] were incubated for 5 minutes at 37° C. with varying concentrations of inhibitors. To determine specificity toward ALDH1A2, the IC50 for […]
# ALDH2 = target: T2, ALDH2 (Homo sapiens, UniProt P05091); experiment: Purified ALDH2 assay with propanal, NADH fluorescence; assay type: biochemical; settings: purified enzyme
# T2 construct: histidine-tag (N); made in house; host or cells: bacterial expression (pETite vector, IPTG induction)
# T2 sequence (P05091 18-517): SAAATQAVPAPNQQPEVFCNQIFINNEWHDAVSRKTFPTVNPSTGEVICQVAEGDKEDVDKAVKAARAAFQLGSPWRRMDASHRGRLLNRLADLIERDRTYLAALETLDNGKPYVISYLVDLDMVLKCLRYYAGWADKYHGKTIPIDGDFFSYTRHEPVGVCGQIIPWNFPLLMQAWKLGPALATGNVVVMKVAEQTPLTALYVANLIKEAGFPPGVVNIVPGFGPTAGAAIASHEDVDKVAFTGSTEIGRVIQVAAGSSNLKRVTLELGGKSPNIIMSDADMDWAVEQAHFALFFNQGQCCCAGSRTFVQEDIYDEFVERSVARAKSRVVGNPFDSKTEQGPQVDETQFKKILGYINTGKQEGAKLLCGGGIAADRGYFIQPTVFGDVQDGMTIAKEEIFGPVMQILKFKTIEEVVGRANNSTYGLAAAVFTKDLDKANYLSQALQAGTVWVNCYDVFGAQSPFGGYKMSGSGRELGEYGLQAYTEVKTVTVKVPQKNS
# Method in brief: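 His-tagged human ALDH2 expressed in bacteria and purified. 2 μg enzyme incubated with 20 μM propanal and varying inhibitor concentrations at room temperature. Activity read as NADH fluorescence (Ex 350/Em 460 nm), with initial velocity from two consecutive readings over 1 minute.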
IC50 (ALDH1A1) [µM],IC50 (ALDH2) [µM],Compound
–,97.5,"Cn1cccc1C(=O)N1CCN(c2ccc([N+](=O)[O-])c(N3CCCC3)c2)CC1 [Compound 343, [4-(4-Nitro-3-(pyrrolidin-1-yl)phenyl)piperazin-1-yl](1-methyl-1H-pyrrol-2-yl)methanone]"
0.453,48.6,"O=C(c1ccc[nH]1)N1CCN(c2ccc([N+](=O)[O-])c(N3CCCC3)c2)CC1 [Compound 344, {4-[4-Nitro-3-(pyrrolidin-1-yl)phenyl]piperazin-1-yl}(1H-pyrrol-2-yl)methanone]"
–,> 100,"COc1ccc(C(=O)N2CCN(c3ccc([N+](=O)[O-])c(N4CCCC4)c3)CC2)cc1 [Compound 345, 4-Methoxyphenyl-1-{4-[4-nitro-3-(pyrrolidin-1-yl)phenyl]piperazin-1-yl}methanone]"
–,> 100,"CN(C)c1ccc(C(=O)N2CCN(c3ccc([N+](=O)[O-])c(N4CCCC4)c3)CC2)cc1 [Compound 346, 4-Dimethylaminophenyl-1-{4-[4-nitro-3-(pyrrolidin-1-yl)phenyl]piperazin-1-yl}methanone]"
1.07,61.6,"CC(=O)n1cccc1C(=O)N1CCN(c2ccc([N+](=O)[O-])c(N3CCCC3)c2)CC1 [Compound 347, {4-[4-Nitro-3-(pyrrolidin-1-yl)phenyl]piperazin-1-yl}(1-acetyl-pyrrol-2yl)methanone]"
0.23,> 80,"Cn1cccc1C(=O)N1CCN(c2ccc(NC(=O)C(Cl)Cl)c(N3CCCC3)c2)CC1 [Compound 367, 1-[4-(4-N-Dichloroacetyl-3-(pyrrolidin-1-yl)phenyl]piperazin-1-yl](1-methyl-1H-pyrrol-2-yl)methanone]"
0.3,3.5,"Cn1cccc1C(=O)N1CCN(c2ccc(NC(=O)CCl)c(N3CCCC3)c2)CC1 [Compound 372, 1-[4-(4-N-Chloroacetyl-3-(pyrrolidin-1-yl)phenyl]piperazin-1-yl](1-methyl-1H-pyrrol-2-yl)methanone]"
1.44,> 100,Cn1cccc1C(=O)N1CCN(c2ccc(-c3ccc([N+](=O)[O-])cc3)c(N3CCCCC3)c2)CC1 [Compound 373]

# The remaining lines, values behind:
Compound,IC50 (ALDH1A1) [µM],IC50 (ALDH2) [µM]
3-(4-Acryloylphenyl)-1-phenyl-1H-pyrazole-4-carbaldehyde [Compound 309],0.005,> 0.16
3-{4-[(Chloroacetyl)amino]phenyl}-N-(3-fluorophenyl)-1-phenyl-1H-pyrazole-4-carboxamide [Compound 294],0.003,24.4
"N#Cc1ccc(-n2cc(C(=O)Nc3cccc(F)c3)c(-c3ccc(NC(=O)C(Cl)Cl)cc3)n2)cc1 [Compound 316a, 3-(4-Dichloroacetamidophenyll)-N-(3-fluorophenyl)-1-(4-cyanophenyl)-1H-pyrazole-4-carboxamide]",0.249,4
"Cc1cc(C(=O)N2CCN(c3ccc([N+](=O)[O-])c(N4CCCC4)c3)CC2)sc1C [Compound 327, {4-[4-Nitro-3-(pyrrolidin-1-yl)phenyl]piperazin-1-yl}(4,5-dimethylthiophen-2-yl)methanone]",–,79.8
"COc1ccsc1C(=O)N1CCN(c2ccc([N+](=O)[O-])c(N3CCCC3)c2)CC1 [Compound 329, {4-[4-Nitro-3-(pyrrolidin-1-yl)phenyl]piperazin-1-yl}(3-methoxythiophen-2-yl)methanone]",–,86.4
"Nc1ccsc1C(=O)N1CCN(c2ccc([N+](=O)[O-])c(N3CCCC3)c2)CC1 [Compound 331, {4-[4-Nitro-3-(pyrrolidin-1-yl)phenyl]piperazin-1-yl}(3-aminothiophen-2-yl)methanone hydrochloride]",–,24.9
CC(=O)Nc1ccsc1C(=O)N1CCN(c2ccc([N+](=O)[O-])c(N3CCCC3)c2)CC1 [Compound 332],–,58.3
"O=C(c1ccc(F)s1)N1CCN(c2ccc([N+](=O)[O-])c(N3CCCC3)c2)CC1 [Compound 334, {4-[4-Nitro-3-(pyrrolidin-1-yl)phenyl]piperazin-1-yl}(5-fluorothiophen-2-yl)methanone]",–,> 100
"O=C(c1ccccc1)N1CCN(c2ccc([N+](=O)[O-])c(N3CCCC3)c2)CC1 [Compound 339, Phenyl-1-{4-[4-nitro-3-(pyrrolidin-1-yl)phenyl]piperazin-1-yl}methanone]",0.675,48.1
"O=C(c1cccc(Cl)c1)N1CCN(c2ccc([N+](=O)[O-])c(N3CCCC3)c2)CC1 [Compound 341, 3-Chlorophenyl-1-{4-[4-nitro-3-(pyrrolidin-1-yl)phenyl]piperazin-1-yl}methanone]",1.65,> 100
"O=C(c1ccc(Cl)cc1)N1CCN(c2ccc([N+](=O)[O-])c(N3CCCC3)c2)CC1 [Compound 342, 4-Chlorophenyl-1-{4-[4-nitro-3-(pyrrolidin-1-yl)phenyl]piperazin-1-yl}methanone]",–,> 100
